Consider eight compounds from paper PMC9325269, “New Polymethoxyflavones from Hottonia palustris Evoke DNA Biosynthesis-Inhibitory Activity in An Oral Squamous Carcinoma (SCC-25) Cell Line” (Molecules, 2022).

Like-named read-outs stand apart in the source and are kept apart here.

The test system of one test is normal fibroblasts. The test is described as follows: MTT cell viability assay, normal fibroblasts. It counts as cell-based, human. Conditions: read-out: IC50 of viability, Fibroblasts. (Formazan colour is commonly taken as a measure of viable cells.)
Test [1] deals with SCC-25 squamous carcinoma cells. The test is described as follows: Morphological profile of SCC-25 cells (microphotographs). It counts as cell-based, human. The note with it: 24 h and 48 h; extracts 100 µg/mL, compounds 100 µM.
The subject of test [2] is human tongue squamous carcinoma cells SCC-25. Description: MTT cell viability assay, SCC-25 cells. The note with it: read-out: IC50 of viability, SCC-25. It counts as cell-based.
Description: (§1) The cell viability and proliferation assays were performed on the human tongue squamous cell line (SCC-25). The cells were obtained from ATCC (CRL-1628, American Type Culture Collection, Manassas, VA, USA) and cultured in a 1:1 mixture of DMEM (Dulbecco’s minimal essential medium) and Ham’s F12 medium (Thermo Fisher Scientific, Waltham, MA, USA, 31330038) supplemented with 400 ng/mL hydrocortisone (Sigma-Aldrich, Burlington, MA, USA, H0135), 10% FBS (fetal bovine serum, Thermo Fisher Scientific, Waltham, MA, USA, 10270106), and penicillin–streptomycin solution (Thermo Fisher Scientific, Waltham, MA, USA, 15140122). Furthermore, for the cytotoxicity assay, human skin fibroblasts (CCD25Sk) cultured in DMEM (Thermo Fisher Scientific, Waltham, MA, USA, 41966029) supplemented with 10% FBS and penicillin-streptomycin solution were used. The cells were incubated at 37 °C in the air with 5% CO2. […] MTT (M5655), SDS (L3771), and cisplatin (cPT), which was used as a positive control (P4394), were purchased from Sigma-Aldrich (Burlington, MA, USA).
(§2) The cell viability assay leans on the transformation of yellow tetrazolinum bromide MTT solution to the purple derivative of formazan via succinate dehydrogenase, an enzyme present in viable cells. Cells were cultured (1 × 10^4 per well) on a 96-well plate to receive 70% of their confluency. After 24 h and 48 h of incubation with the studied samples (prepared as DMSO solutions directly before the assay), the cells were washed with PBS (phosphate-buffered saline). Subsequently, the MTT solution was added, and the plates were incubated at 37 °C for 2 h. Then, formazan crystals were dissolved in 200 μL of DMSO with Sorensen’s glycine buffer and were shacked for 10 min.
For test [3], the system named is DNA biosynthesis in SCC-25 cells. Description: [3H]-thymidine incorporation (DNA biosynthesis / proliferation) assay. It counts as cell-based. Conditions: Homo sapiens; 48 h treatment of SCC-25 cells (as stated in abstract); read-out: DNA biosynthesis-inhibitory activity IC50. For orientation: Dividing cells build labelled thymidine or BrdU into new DNA.
Description: Considering this fact, an evaluation determining whether the cytotoxicity of the samples was the result of their influence on the biosynthesis of cell DNA was carried out by assessing the capability of intracellular thymidine incorporation.
The proliferation of the tested cells was estimated as [^3H]-thymidine incorporation into the DNA of the cells treated with the studied samples [40]. Firstly, cells (1 × 10^4 per well) were placed in 24-well plates and were allowed to adhere for 24 h. […] After incubation for 24 h and 48 h at 37 °C, the cells were rinsed with PBS and solubilized with 1 mL of 0.1 M NaOH (sodium hydroxide) containing 1% SDS (sodium dodecyl sulfate). Then, radioactivity was recorded in a Liquid Scintillation Analyzer (Perkin-Elmer, Waltham, MA, USA) after correction to 9 mL with scintillation liquid.
Another test deals with melanoma cells. The note with it: cited from earlier work.
[4] abbreviates: Homo sapiens, SCC-25, 24 h, MTT, compounds 6.25–200 µM.
[5] abbreviates: Homo sapiens, SCC-25, 48 h, MTT, compounds 6.25–200 µM.
[6] abbreviates: 24 h, MTT, compounds 6.25–200 µM.
The mark [7] stands for this setting: 48 h, MTT, compounds 6.25–200 µM.

Description for normal fibroblasts: as §1, §2

As for `O=C(CC(=O)c1ccccc1)c1ccccc1` [Compound 1, 1,3-diphenylpropane-1,3-dione], the IC50 was greater than 200 µM in the test on normal fibroblasts (Homo sapiens, Fibroblast, 24 h); greater than 200 µM in the test with normal fibroblasts (Homo sapiens, Fibroblast, 48 h); 40 ± 1.89 µM in test [2] (Homo sapiens, SCC-25, 24 h); 29.1 ± 1.45 µM in test [2] (Homo sapiens, SCC-25, 48 h); 29.1 ± 1.45 µM in test [3]. The “morphological profile, cell adhesion and number of cells versus untreated” value in test [1] was “decreased the number of cells”. For the same compound, the cell cycle effect entry in the test with melanoma cells is given as “cell-cycle deregulation”.
For the compound `O=c1cc(-c2ccccc2)oc2cccc(O)c12` [Compound 2, 5-hydroxy-2-phenyl-4H-chromen-4-one], the half-inhibitory concentration (IC50) in test [2] (setting [4]) and in test [2] (setting [5]) was greater than 200 µM throughout.
Consider `COc1ccccc1-c1cc(=O)c2c(O)cccc2o1` [Compound 3, 5-hydroxy-2-(2-methoxyphenyl)-4H-chromen-4-one], for which the IC50 in test [2] (Homo sapiens, SCC-25, 24 h) is greater than 200 µM; in test [2] (Homo sapiens, SCC-25, 48 h), greater than 200 µM.
Take `COc1cccc(OC)c1-c1cc(=O)c2c(O)cccc2o1` [Compound 4, 5-hydroxy-2-(2,6-dimethoxyphenyl)-4H-chromen-4-one]: the concentration for half-maximal inhibition (IC50) in test [2] (Homo sapiens, SCC-25, 24 h) is greater than 200 µM; in test [2] (Homo sapiens, SCC-25, 48 h), greater than 200 µM.
As for `COc1ccc(OC)c(-c2cc(=O)c3c(O)cccc3o2)c1OC` [Compound 5, 5-hydroxy-2-(2,3,6-trimethoxyphenyl)-4H-chromen-4-one], the IC50 in test [2] (Homo sapiens, SCC-25, 24 h) is greater than 200 µM; in test [2] (Homo sapiens, SCC-25, 48 h) it was greater than 200 µM.
`COc1cccc(O)c1-c1cc(=O)c2c(O)cccc2o1` [Compound 6, 5-hydroxy-2-(2-hydroxy-6-methoxyphenyl)-4H-chromen-4-one]: the IC50 in test [2] (setting [4]) and in test [2] (setting [5]) was greater than 200 µM each time.
Consider `COc1ccc(O)c(-c2cc(=O)c3c(O)cccc3o2)c1OC` [Compound 7, 5-hydroxy-2-(6-hydroxy-2,3-dimethoxyphenyl)-4H-chromen-4-one], for which the IC50 in the test with normal fibroblasts (Homo sapiens, Fibroblast, 24 h) was greater than 200 µM; in the test on normal fibroblasts (Homo sapiens, Fibroblast, 48 h), greater than 200 µM; in test [2] (Homo sapiens, SCC-25, 24 h) it was 78.2 ± 3.25 µM; in test [2] (Homo sapiens, SCC-25, 48 h), 40.6 ± 1.65 µM; in test [3] it was 40.6 ± 1.65 µM. Besides, the “morphological profile, cell adhesion and number of cells versus untreated” value in test [1] is on record as “decreased the number of cells”.
Turning to `N.N.[Cl][Pt][Cl]` [cPT, cisplatin, reference compound], the IC50 was greater than 200 µM with normal fibroblasts (setting [6]), 40.5 ± 2.01 µM in the test on normal fibroblasts (setting [7]), 26.1 ± 1.03 µM in test [2] (setting [6]) and 7.58 ± 0.37 µM in test [2] (setting [7]). For the same compound, in test [1], the “morphological profile, cell adhesion and number of cells versus untreated” value is listed as “decreased the number of cells”.

For orientation: IC50 means the concentration that inhibits the measured activity by half.
